# In patent publication US11311593B2, “Root extracts from plants of the Morus genus and uses of same” (PLANT ADVANCED TECHNOLOGIES PAT, priority 2017, dated 2022):
# Experiments:
# fungal tyrosinase = assay: Target Binding affinity test for tyrosinase (UPLC-MS of bound ligands)
# Text: It is based on the principle of bringing the ligands and the target into contact in the liquid phase so that the ligands that have the greatest affinity with the target bind to it, elimination of the ligands that are not fixed, separation of the complexes in order to recover the ligands which have been fixed, then quantification of the latter. In a first step of the method, the extract and the target are mixed. The compounds of the extract compete for access to the binding sites of the target. The strongest compounds displace the weakest and are retained more effectively by the target. […] A reference sample was also prepared by diluting the sample to be analyzed 10-fold in a solution of water and a quarter of the volume of acetonitrile. […] Pre-conditioning step-Wells with a filtering membrane were pre-conditioned with a volume of 500 μL of an 85% solution of ammonium acetate and 15% of ethanol which was passed through the membrane by centrifuging at 14000 g for 60 seconds. 2. […] 3. Washing step-The mixture of the enzyme and the sample to be analyzed was deposited in a well that had been pre-conditioned in the pre-conditioning step, then centrifuged at 14000 g until most of the solvent had been eliminated. […] This procedure was repeated three times and eliminated all of the compounds that were not bound to the enzyme. 4. Separation step-The enzyme-ligand complexes retained in the filter were re-suspended in a volume of 10 μL of ultra-pure water, then mixed with a volume of 40 μL of acetonitrile in order to denature and precipitate the enzyme and, at the same time, to liberate the ligands. The mixture was centrifuged at 21000 g for 10 min in order to separate the precipitate from the supernatant. 5. Analysis step-Said supernatant was analyzed by liquid phase chromatography coupled to a mass spectrometer, also known by the acronym UPLC-MS. The reference sample was also analyzed in the same manner, using the same analytical conditions. The UPLC-MS analysis was carried out in accordance with the protocol described in Example 1. The chromatograms obtained are presented in FIGS. 3A and 3B and represent a signal intensity as a function of retention time in a column. […] Each peak is associated with one of the ligands present in the analyzed extract. The quantity associated with each ligand corresponds to the area of the peak. […] For each ligand, an affinity ratio, RACEi, was calculated as follows: [formula] where: NF is a normalization factor; […] the intensity of the analytical signal for the ligand CEi in the reference sample; ISeq,REF is the intensity of the analytical signal for the reference ligand REF (here, moracenin B) in the reference sample; […] the intensity of the analytical signal for the ligand CEi in the treated solution (the sample to be analyzed after steps 2 to 4 for binding and separation of the ligands) for the detached ligands; ISTB,REF is the intensity of the analytical signal for the reference ligand REF (here, moracenin B) in the treated solution (the sample to be analyzed after steps 2 to 4 for binding and separation of the ligands) for the detached ligands; RA, CEi is the relative affinity ratio (RA), representing an affinity of the ligand CEi for the target. The value of the ratio increases with affinity.
# [1] = tested on: collagenase obtained from Clostridium Histolyticum; assay: Target Binding affinity test for collagenase; conditions: ligands in non-stimulated M. alba root extract; moracenin B = reference ligand
# Procedure: A root extract of Morus alba was prepared in accordance with the protocol described in Example 2.1. The Target Binding® method used was that of Example 2.3 which is described in patent application FR 1 670 545. The experimental protocol was as follows:
# The target, a 6.25 mg/mL solution of collagenase obtained from Clostridium histolyticum, was prepared by dissolving lyophilized enzyme powder in 50 mM saline phosphate buffer with a pH of 7.5. The sample to be analyzed corresponded to the supernatant of the root extract obtained in accordance with Example 2.1. It could be centrifuged once again before use, at 21000 g for 15 min, in order to remove any traces of solid particles. A reference sample was also prepared by diluting the sample to be analyzed 10-fold in a solution of water and a quarter of the volume of acetonitrile.
# 1. Preconditioning step—Wells with a filtering membrane were preconditioned with a volume of 500 μL of a saline phosphate buffer which was passed through the membrane by centrifuging at 14000 g for 60 seconds.
# 2. Binding step—A volume of 92.5 μL of the solution obtained from the pretreatment step was mixed with 7.5 μL of the sample to be analyzed for 10 min in a plastic Eppendorf tube.
# 3. Washing step—The mixture of the enzyme and the sample to be analyzed was deposited in a well that had been preconditioned in the preconditioning step, then centrifuged at 14000 g until most of the solvent had been eliminated. The enzyme-ligand complexes remained on the surface of the filter membrane, then were re-suspended in a volume of 100 μL of the same saline phosphate buffer solution and centrifuged at 14000 g until the solvent had been eliminated. This procedure was repeated three times and eliminated all of the compounds that were not bound to the enzyme. 4. Separation step—The enzyme-ligand complexes retained in the filter were re-suspended in a volume of 10 μL of ultra-pure water then mixed with a volume of 30 μL of acetonitrile in order to denature and precipitate the enzyme and, at the same time, to liberate the ligands. The mixture was centrifuged at 21000 g for 10 min in order to separate the precipitate from the supernatant. 5. Analysis step—Said supernatant was analyzed by liquid phase chromatography coupled to a mass spectrometer. The reference sample was also analyzed in the same manner, using the same analytical conditions.
# (§1) The UPLC-MS analysis was carried out in accordance with the protocol described in Example 1.
# hyaluronidase = assay: Target Binding affinity test for hyaluronidase; conditions: ligands in non-stimulated M. alba root extract; moracenin B = reference ligand
# Procedure: A root extract of Morus Alba was prepared in accordance with the protocol described in Example 2.1. The Target Binding® method used was that of Example 2.3 which is described in patent application FR 1 670 545. The experimental protocol was as follows: The target, a 5 mg/mL solution of hyaluronidase, was prepared by dissolving powdered lyophilized enzyme in 50 mM sodium phosphate, with a pH of 7.0. The extract corresponded to the supernatant obtained in accordance with Example 2.1. It could optionally be centrifuged once again before use, at 21000 g for 15 min, in order to eliminate the solid particles before use. A reference sample was also prepared by diluting the sample 10-fold in a solution of water and a quarter of the volume of acetonitrile.
# 1. Preconditioning step—Wells with a filtering membrane were preconditioned with a volume of 500 μL of a solution of 50 mM sodium phosphate, at a pH of 7.0 which was passed through the membrane by centrifuging at 14000 g for 60 seconds.
# 2. Binding step—The hyaluronidase preparation (5 mg/mL) was mixed with 7.5 μL of the root extract for 5 min in a plastic Eppendorf tube.
# 3. Washing step—the mixture of the enzyme and the root extract was deposited in a well that had been preconditioned in the preconditioning step, then centrifuged at 14000 g until most of the solvent had been eliminated. The enzyme-ligand complexes remained on the surface of the membrane of the filter then were re-suspended in a volume of 100 μL of the same solution of 50 mM sodium phosphate at a pH of 7.0, and centrifuged at 14000 g until the solvent had been eliminated. This procedure was repeated three times and eliminated all of the compounds that were not bound to the enzyme. 4. Separation step—The enzyme-ligand complexes retained in the filter were re-suspended in a volume of 10 μL of ultra-pure water then mixed with a volume of 40 μL of acetonitrile in order to denature and precipitate the enzyme and at the same time to liberate the ligands. The mixture was centrifuged at 21000 g for 10 min in order to separate the precipitate from the supernatant. 5. Analysis step—Said supernatant was analyzed by liquid phase chromatography coupled to a mass spectrometer, also known by the acronym UPLC-MS. The reference sample was also analyzed in the same manner, using the same analytical conditions.
# as §1
# [2] = target: T1, hyaluronidase originating from bull testicles (type IV-S) (Bos taurus, UniProt Q2YDK3); assay: Anti-hyaluronidase inhibiting activity, hyaluronic acid as substrate, precipitation with acidic BSA; assay type: biochemical
# T1 construct: hyaluronidase originating from bull testicles (type IV-S); from tissue; host or cells: bull testicles
# T1 sequence (Q2YDK3 36-553): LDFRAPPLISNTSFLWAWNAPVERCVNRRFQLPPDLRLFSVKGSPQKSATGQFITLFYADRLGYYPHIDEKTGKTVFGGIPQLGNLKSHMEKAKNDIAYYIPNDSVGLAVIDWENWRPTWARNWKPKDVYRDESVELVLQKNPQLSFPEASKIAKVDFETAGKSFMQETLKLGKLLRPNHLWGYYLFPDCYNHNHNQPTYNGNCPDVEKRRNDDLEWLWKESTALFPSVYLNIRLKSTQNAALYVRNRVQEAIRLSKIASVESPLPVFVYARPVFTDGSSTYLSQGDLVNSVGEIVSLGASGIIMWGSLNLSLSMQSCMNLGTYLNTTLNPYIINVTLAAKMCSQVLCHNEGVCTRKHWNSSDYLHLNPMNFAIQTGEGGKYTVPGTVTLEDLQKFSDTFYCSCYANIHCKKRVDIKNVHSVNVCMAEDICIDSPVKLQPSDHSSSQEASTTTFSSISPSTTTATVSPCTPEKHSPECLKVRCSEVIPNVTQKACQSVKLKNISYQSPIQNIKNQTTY
# Procedure: A root extract of Morus Alba was prepared in accordance with the protocol described in Example 5. Hyaluronidase catalyzes the hydrolysis of hyaluronic acids into monosaccharides, disaccharides and short oligosaccharides. The measurement of the anti-hyaluronidase inhibiting activity was carried out using hyaluronic acid (HA) as a substrate in order to follow its reduction during the enzymatic reaction, the slope of the reduction of the concentration of HA during the reaction being proportional to the enzymatic activity.
# The concentration of HA was measured in accordance with the following principle: in the presence of an acidic solution of bovine serum albumin, HA precipitates. Thus, in the case of the presence of HA, a precipitate is formed and in the case of complete hydrolysis of the HA, no precipitate is observed. Thus, the quantity of precipitation is proportion& to the HA content. […]
# In order to follow the enzymatic degradation of the HA, a volume of 50 μl of RM was removed every 15 minutes, mixed with a volume of 250 μL of the solution of acidic BSA (acidic solution of bovine serum albumin: 24 mM sodium acetate, 79 mM acetic add and 0.1% (w/v) bovine serum albumin, pH 3.75) then incubated for 10 min at ambient temperature. The quantity of precipitate formed was then measured using a plate reader (diffusion of light at 600 nm). […]
Compound,"Relative affinity (RA) for tyrosinase (fungal tyrosinase; ligands in non-stimulated M. alba root extract, moracenin B = reference ligand)",affinity for tyrosinase compared with the other compounds of the extract (in words) (fungal tyrosinase; peak areas of FIG. 3B / relative affinities),Relative affinity (RA) for collagenase [1],Relative affinity (RA) for hyaluronidase (hyaluronidase),inhibition at 10 µM [2]
"CC(C)=CCc1c(O)ccc(C(=O)C2C(c3c(O)cc(-c4cc5ccc(O)c(CC=C(C)C)c5o4)cc3O)C=C(C)CC2c2ccc(O)cc2O)c1O (centres unmarked) [Mulberrofuran T, mulberrofuran T]",36.2,greater affinity,1.1,2.7,
"O=c1c(O)c(-c2ccc(O)c(O)c2)oc2cc(O)cc(O)c12 [quercetin, reference compound]",,,,,15.6%
